We go through 2 molecules from paper PMC2267459, “Efficient display of active lipase LipB52 with a Pichia pastoris cell surface display system and comparison with the LipB52 displayed on Saccharomyces cerevisiae cell surface” (BMC Biotechnology, 2008).

This assay concerns the target T1, LipB52 (Pseudomonas fluorescens, UniProt Q6GX93).
T1 construct: lipase fused at its N-terminus to the C-terminus of the FLO flocculation domain (Saccharomyces cerevisiae ATCC 60715) as display anchor
T1 sequence (Q6GX93 1-617): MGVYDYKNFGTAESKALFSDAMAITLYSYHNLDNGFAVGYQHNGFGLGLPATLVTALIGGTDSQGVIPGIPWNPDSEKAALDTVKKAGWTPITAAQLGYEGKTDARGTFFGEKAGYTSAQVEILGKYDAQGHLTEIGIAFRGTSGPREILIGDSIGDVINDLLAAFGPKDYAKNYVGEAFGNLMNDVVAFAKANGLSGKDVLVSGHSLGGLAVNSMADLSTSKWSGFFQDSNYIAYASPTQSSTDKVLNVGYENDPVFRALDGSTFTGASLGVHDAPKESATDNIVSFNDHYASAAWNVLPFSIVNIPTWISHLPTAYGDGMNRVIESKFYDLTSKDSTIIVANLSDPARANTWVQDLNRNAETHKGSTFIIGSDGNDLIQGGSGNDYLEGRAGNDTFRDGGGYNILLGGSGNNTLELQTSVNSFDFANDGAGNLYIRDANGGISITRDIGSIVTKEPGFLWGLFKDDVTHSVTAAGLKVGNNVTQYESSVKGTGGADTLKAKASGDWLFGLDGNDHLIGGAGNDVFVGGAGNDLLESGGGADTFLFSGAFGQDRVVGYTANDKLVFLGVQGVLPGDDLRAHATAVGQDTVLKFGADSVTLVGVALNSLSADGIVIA
The experiment in a line: p-nitrophenol release by displayed whole cells. The note with it: yeast surface-displayed (whole-cell) enzyme. It is filed as cell-based.

SMILES strings stand for the structures.

In the case of `CCCCCCCCCC(=O)Oc1ccc([N+](=O)[O-])cc1` [C10, p-nitrophenol-caprate], the “p-nitrophenol release by displayed whole cells” value (pH 8.0, 40 °C) is listed as “the optimum substrate was p-nitrophenol-caprate (C10)”.
`CCCCCCCCCCCC(=O)Oc1ccc([N+](=O)[O-])cc1` [C12, p-nitrophenol ester (C12)]: where the note is “conditions not stated for this substrate”, the “p-nitrophenol release by displayed whole cells” value is on record as “exhibited evident hydrolysis activity towards the p-nitrophenol ester”.
